# US10617678B2, “Treatment of restenosis using temsirolimus” (MERCATOR MEDSYSTEMS, INC., priority 2016, dated 2020)
# Entries after “also recorded” stand apart in the source; their conditions may differ.
# Columns and labels:
# [1] = system: femoral artery injured by angioplasty overstretch; experiment: Histopathology in porcine model of femoral artery injury; assay type: in vivo, Yorkshire pigs
# [2] = system: cell proliferation in the vessel wall and adventitia; experiment: Ki-67 staining of cellular proliferation in injured femoral vessels; assay type: in vivo, Yorkshire pigs; details: day 3, 7 and 28; 1.5 ml of 238 μg/ml perivascular injection
# [3] = Pharmacokinetics: whole blood concentrations after adventitial injection; assay type: in vivo, Yorkshire pigs
# Method: Temsirolimus Preparation. The 25 mg/ml of Torisel® (temsirolimus) was diluted to 10 mg/ml with the supplied diluent and further diluted to 476 μg/ml in 0.9% sodium chloride solution. Then, the 476 μg/ml temsirolimus was mixed at 1:1 ratio with a contrast medium, Isovue-370, for a final temsirolimus concentration of 238 μg/ml. This temsirolimus preparation was subsequently administered in temsirolimus-treated group pigs. Similarly, a control solution was prepared by mixing 0.9% sodium chloride solution at 1:1 ratio with a contrast medium, Isovue-370. This control solution was administered in control group pigs.
# Temsirolimus-Treated Group.
# Pharmacokinetics. Whole blood samples were taken following each injection at 5 minutes, 20 minutes, 1 hour, and then 24 hours and upon sacrifice. Whole blood samples were analyzed for circulating temsirolimus and sirolimus concentrations. FIG. 14A and FIG. 14B show the levels of temsirolimus and sirolimus, respectively, circulating in whole blood at 1 hour, and 3, 7, and 28 days post-procedure. The mean temsirolimus level in whole blood was highest at 1 hour after the first injection (32.1±11.0 ng/mL) and decreased by an order of magnitude within 24 hours (2.4±1.0 ng/mL).
# [4] = Pharmacokinetics: concentrations in harvested vessel tissues; assay type: in vivo, Yorkshire pigs; details: post-dosing
# [5] = clinical observations, clinical pathology, post mortem tissue analysis; adventitial injection with Bullfrog device
# [6] = 1.5 ml of 238 μg/ml perivascular injection, injured femoral artery
structure (smiles),measurement,setting,value
CO[C@H]1C[C@@H]2CC[C@@H](C)[C@@](O)(O2)C(=O)C(=O)N2CCCC[C@H]2C(=O)O[C@H]([C@H](C)C[C@@H]2CC[C@@H](OC(=O)C(C)(CO)CO)[C@H](OC)C2)CC(=O)[C@H](C)/C=C(\C)[C@@H](O)[C@@H](OC)C(=O)[C@H](C)C[C@H](C)/C=C/C=C/C=C/1C [temsirolimus],neointima formation,[1]; [6],no or minimal to mild and non-stenosing neointima formation
same,re-endothelialization,[1]; [6],complete or near complete re-endothelialization
same,healing of treated vessels (histopathology),[1]; 1.5 ml of 238 μg/ml temsirolimus into adventitia/perivascular tissue of each injured femoral artery,fully or nearly fully healed as early as day 7
same,cell proliferation throughout the vessel wall (Ki-67) compared to controls,[2],moderate to marked decrease; also recorded: reduced cellular proliferation
same,temsirolimus concentration in whole blood,[3]; 7 days post-procedure,below the limit of quantitation
same,temsirolimus concentration in whole blood,[3]; 28 days post-procedure,below the limit of quantitation
same,concentration at 1 h,"[3]; Yorkshire, pig, whole blood, 357 µg per artery (1.5 ml of 238 µg/ml), 1 hour after the first injection, read-out: mean temsirolimus level in whole blood",32.1 ± 11 ng/mL
same,concentration at 24 h,"[3]; Yorkshire, pig, whole blood, 357 µg per artery (1.5 ml of 238 µg/ml), 24 hours, read-out: mean temsirolimus level in whole blood",2.4 ± 1 ng/mL
same,temsirolimus concentration in whole blood,[3]; between 24 hours and 3 days,continued to decrease
same,time temsirolimus was measured in local vascular tissue,[4],up to 28 days
same,local or systemic toxicity,[5],no evidence of local or systemic toxicity
